Results on 15 compounds are retold here after patent publication US8114994B2, “2′ and 3′-substituted cyclobutyl nucleoside analogs for the treatment viral infections and abnormal cellular proliferation” (Emory University, priority 2004, dated 2012).

The subject of assay [1] is HIV. The experiment in a line: Anti-HIV activity in PBM cells. The note with it: Human immunodeficiency virus 1, PBMC. Type of assay: cell-based. How it is done:
(§1) The cyclobutyl nucleoside analogs (CBN) were evaluated for their anti-HIV activity and cytotoxicity in PBM, CEM and Vero cells, according to known procedures.
(§2) The following cyclobutyl nucleoside compounds were evaluated for their anti-HIV activity and cytotoxicity in PBM cells, according to standard procedures.

For assay [2], the system named is PBM cells. The experiment in a line: Toxicity in PBM cells. The note with it: PBMC. Type of assay: cell-based. How it is done:
as §1, §2

Assay [3] deals with CEM cells. In words: Toxicity in CEM cells. Particulars: Homo sapiens, CCRF-CEM. Type of assay: cell-based. The procedure:
as §1, §2

Assay [4] relates to Vero cells. The experiment in a line: Toxicity in Vero cells. Type of assay: cell-based. Particulars: Chlorocebus sabaeus. The procedure: as §1, §2
Assay [5] deals with HIV. In words: Anti-HIV activity in PBM cells. Type of assay: cell-based. The note with it: Example 114, refers to Table 6.
The target in assay [6] is T1, Recombinant HIV RT (WT) (Human immunodeficiency virus type 1 group M subtype B, UniProt P04585).
T1 construct: was evaluated against recombinant wild type HIV-RT
The experiment in a line: RT assay, recombinant wild type HIV-RT (cell-free). Type of assay: biochemical. The note with it: triplicates from one experiment, read-out: Inhibition of RT Activity (IC50). How it is done: [drawing 29] was evaluated against recombinant wild type HIV-RT, as well as the M184I and M184V mutants, according to the RT assay described in Eriksson B F, Chu C K, Schinazi R F; Antimicrob. Agents Chemother. 1989, 33, 1729-1734. The results are tabulated in Tables 2-5 and depicted in FIGS. 1-3.

The target of assay [7] is T2, HIV-RT from viral-lysate (WT) (Human immunodeficiency virus type 1 group M subtype B, UniProt P04585).
T2 construct: from tissue; host or cells: HIV viral lysate
The experiment in a line: Inhibition of HIV-RT from viral-lysate (WT). Type of assay: biochemical. The note with it: for % Inhibition / cpm/ml: RT from viral lysate (WT); for IC50: HIV RT (WT) from viral lysates from infected PBMC, triplicates from one experiment.

The target of assay [8] is T3, HIV RT (M/I) (Human immunodeficiency virus type 1 group M subtype B, UniProt P04585, M771I).
T3 construct: from tissue; host or cells: HIV viral lysate (M184I mutant strain)
The experiment in a line: Inhibition of HIV-RT from viral lysate, M184I mutant (M/I). Particulars: for % Inhibition / cpm/ml: M/I RT; for IC50: HIV RT (M/I) from viral lysates from infected PBMC, triplicates from one experiment. Format: biochemical.

In assay [9] the target is T4, HIV RT (M/V) (Human immunodeficiency virus type 1 group M subtype B, UniProt P04585, M771V).
T4 construct: from tissue; host or cells: HIV viral lysate (M184V mutant strain)
In words: Inhibition of HIV-RT from viral-lysate (M/V), M184V mutant. The note with it: for % Inhibition / cpm/ml: RT from viral lysate (M/V); for IC50: HIV RT (M/V) from viral lysates from infected PBMC, triplicates from one experiment. Type of assay: biochemical.

Assay [10] has as its system HIV. The note with it: after 28 days treatment; preliminary human data; cited from earlier work.

The term EC50 denotes the concentration giving half of the maximal effect. Compound `OC[C@H]1C[C@@H](n2cnc3c(Cl)ncnc32)C1F` (stereo partly drawn) [DLS-197] gave an EC50 in assay [1] greater than 100 µM.
The same measure, in the same setting: under `O=c1[nH]c(=O)n(C[C@@H]2C[C@H](CO)C2O)cc1F` (stereo partly drawn) [DLS-210] stands greater than 100 µM.
On the same count and under the same terms, the value for `O=c1ccn([C@@H]2C[C@H](CO)C2F)c(=O)[nH]1` (stereo partly drawn) [DLS-194] was greater than 100 µM.
In general, EC90 refers to the point of the concentration-response curve where the effect stands at 90%. Higher therefore signals weaker potency. A word on the IC50: it is the concentration at which inhibition is half-maximal. In assay [1], `Nc1ncnc2c1ncn2[C@@H]1C[C@H](CO)C1O` (stereo partly drawn) [DLS-207] gave an EC50 of 33.7 µM. The compound further displayed an EC90 in assay [1] of 60.1 µM. In addition, the IC50 in assay [2] was 13.8 µM; in assay [3], greater than 100 µM; in [4], 97.8 µM. Besides, the “inhibition of HIV-RT (in words)” value in [5] is recorded as “significant inhibition”.
Consider `Nc1nc(O[C@@H]2C[C@H](CO)C2F)ncc1F` (stereo partly drawn) [DLS-221], for which the EC50 in assay [1] is greater than 100 µM.
By % Inhibition is commonly meant the share of the control response that was lost under treatment. Low values mean little suppression, high ones strong suppression. As for “5-fluoro-1-[cis-3-(hydroxymethyl)-cyclobutyl]-cytosine triphosphate [DLS183-TP]”, the concentration for half-maximal inhibition (IC50) in assay [6] is 4.74 µM; in [7], 6.85 µM; in assay [8], 6.06 µM; in [9], 6.91 µM. Besides, the “% Inhibition” value in assay [7] (0.1 μM) worked out at 0.01%; in assay [7] (1 μM) it was 18%; in [7] (10 μM), 51%; in assay [8] (0.1 μM), 0.01%; in assay [8] (1 μM) it was 20%; in assay [8] (10 μM) it was 53%. Besides, the “% Inhibition” value in [9] (0.1 μM) is recorded as 5%; in assay [9] (1 μM) it was 22%; in assay [9] (10 μM), 51%. Moreover, the cpm/ml in [7] (0.1 μM) came to 280781.826 cpm/ml; in assay [7] (1 μM), 228126.312 cpm/ml; in assay [7] (10 μM), 134616.36 cpm/ml; in [8] (0.1 μM), 407041.44 cpm/ml; in [8] (1 μM), 272130.486 cpm/ml; in assay [8] (10 μM), 160719.12 cpm/ml. Further, the cpm/ml in [9] (0.1 μM) turned out to be 297603.432 cpm/ml; in assay [9] (1 μM), 245062.692 cpm/ml; in [9] (10 μM), 152688.27 cpm/ml.
Turning to `Nc1ccn([C@@H]2C[C@H](CO)C2F)c(=O)n1` (stereo partly drawn) [DLS-195], the EC50 in [1] was greater than 100 µM.
On the same count and under the same terms, under `O=c1[nH]c(=O)n([C@@H]2C[C@H](CO)C2F)cc1F` (stereo partly drawn) [DLS-196] stands greater than 100 µM.
Take `Nc1ccn([C@@H]2CS[C@H](COP(=O)(O)OP(=O)(O)OP(=O)(O)O)O2)c(=O)n1` [Compound 3TC-TP, reference compound]: the IC50 in [6] is 2.99 µM; in [7] it was 6.53 µM; in assay [8] it was greater than 10 µM; in [9], greater than 10 µM. Further, the “% Inhibition” value in assay [7] (0.1 μM) is on record as 3.1%; in assay [7] (1 μM), 22%; in assay [7] (10 μM) it was 55%; in [8] (0.1 μM) it was 0.03%; in [8] (1 μM), 0.03%; in [8] (10 μM), 13%. For the same compound, the “% Inhibition” value in [9] (0.1 μM) stood at 13%; in assay [9] (1 μM), 7%; in assay [9] (10 μM), 0.01%. Further, the cpm/ml in assay [7] (0.1 μM) came out at 268420.2 cpm/ml; in assay [7] (1 μM), 215883.012 cpm/ml; in [7] (10 μM) it was 124341.312 cpm/ml; in assay [8] (0.1 μM) it was 329435.346 cpm/ml; in assay [8] (1 μM) it was 329605.62 cpm/ml; in [8] (10 μM) it was 298628.406 cpm/ml. Besides, the results for the cpm/ml in assay [9] (0.1 μM), in assay [9] (1 μM) and in assay [9] (10 μM) were 270239.712 cpm/ml, 288267.666 cpm/ml and 336946.272 cpm/ml, respectively.
On to `Nc1nc2c(ncn2[C@@H]2CC(CO)C2CO)c(=O)[nH]1` (stereo partly drawn) [lobucavir, (R)-9-[2,3-Bis(hydroxymethyl)cyclobutyl]guanine], for which the “reductions in HIV viral load” value in assay [10] is recorded as no more than 1.5 log.
In assay [1], `Nc1ncnc2c1ncn2CC1CC(CO)C1` (stereo not drawn) [DLS-212] had an EC50 greater than 100 µM.
Regarding `Nc1ncnc2c1ncn2[C@@H]1C[C@H](CO)C1F` (stereo partly drawn) [DLS-206], the response in [1] was half-maximal at 50.4 µM (EC50). Moreover, in [1], the EC90 is greater than 100 µM. For the same compound, the IC50 in [2], in assay [3] and in assay [4] was greater than 100 µM in each case. Besides, the “inhibition of HIV-RT (in words)” value in assay [5] was “significant inhibition”.
`Nc1nc2c(ncn2[C@@H]2C[C@H](CO)C2F)c(=O)[nH]1` (stereo partly drawn) [DLS-223] displayed an EC50 in [1] of 27.7 µM. The EC90 in assay [1] was greater than 100 µM. Also, the IC50 in assay [2], in assay [3] and in assay [4] was greater than 100 µM throughout. In [5], the “inhibition of HIV-RT (in words)” value was “significant inhibition”.
Regarding `Nc1nc(=O)n([C@@H]2C[C@H](CO)C2F)cc1F` (stereo partly drawn) [DLS-222], the EC50 in [1] is greater than 100 µM.
Still for that read-out and setting: the value for `Nc1ncnc2c1ncn2C[C@H]1C[C@H](CO)C1` [DLS-211] was greater than 100 µM.
